From patent US20240082282A1 (priority 2020, published 2024) come the findings set out here.

For the data set, the system named is murine gut microbiome. As to the kind of experiment: Impact on the murine fecal microbiome (16S rRNA sequencing). The following applies: mouse, in vivo. The protocol:
Stool samples were collected and V4 region of the 16s rRNA gene was amplified using primers and sequenced (IonTorrent).
Fecal pellets were collected 3 days before and 3 days after antibiotic treatment and were stored at −80° C. in PBS. Sequencing of a stool pellet from each mouse from before and after treatment was performed by MR DNA (www.mrdnalab.com, Shallowater, TX, USA) on an Ion Torrent PGM. Using PCR primers, the V4 variable region of the 16SrRNA gene was amplified in a single-step 30 cycle PCR with the HotStarTaq Plus Master Mix Kit (Qiagen, USA). The following conditions were used: 94° C. for 3 minutes and 30 cycles of 94° C. for 30 seconds, 53° C. for 40 seconds and 72° C. for 1 minute, then a final elongation step for 5 minutes at 72° C. […] Barcodes and primers and then sequences<150 bp were removed. Further, sequences with homopolymer runs exceeding 6 bp and sequences with ambiguous calls were removed. The sequences were then denoised, OTUs were generated, and chimeras were removed; OTUs were clustered at 3% divergence. Taxonomic classification was performed using BLASTn against a database derived from RDPII available at www.rdp.cme.msu.edu) and NCBI (www.ncbi.nlm.nih.gov). The change in relative abundance of the most abundant genera from before to after treatment of each individual mouse was reported. Further, raw sequences were processed in Qiita (Gonzalez, A., et al. (2018). Nat Methods 15, 796-798; the contents of which are herein incorporated by reference in its entirety) and were demultiplexed, trimmed to 100 bp, and closed reference OTU picking was performed against the Greengenes database at 97% similarity (McDonald, D. et al. (2012). ISME J 6, 610-618; the contents of which are herein incorporated by reference in its entirety). The alpha diversity based on the Simpson index was calculated in Qiita. The change in the Simpson index was calculated for the fecal microbiome of each mouse from before to after treatment. Statistical significance was calculated using a one-way ANOVA with Tukey's multiple comparisons test (p<0.05).

Turning to `CC1(C)S[C@@H]2[C@H](NC(=O)[C@H](N)c3ccccc3)C(=O)N2[C@H]1C(=O)O` [Ampicillin, reference compound], the “Changes in the composition of the microbiota” value is recorded as “significant changes”.
